Tested on: orchidectomized male Sprague-Dawley rat
Assay: In vivo assay, orchidectomized mature male rats (14 days oral)
Details: for exposure (AUC24) at which muscle mass is stimulated above sham equivalent levels: ORX male rats, 14 days PO
From the text: The orchidectomized male Sprague-Dawley rat model was used to assess the effects of Compound 102 on various reproductive, gonadotropin and musculoskeletal endpoints, including sex accessory organs, bone, serum gonadotropin levels and striated muscle in mature male rats.
In this assay, two-month old rats were acclimated in a vivarium for one week. After this acclimation period, rats were surgically orchidectomized under isoflurane anesthesia and left untreated for 14 days. After 14 days, animals were sorted into groups such that no statistically significant differences in mean body weights were observed. Rats began receiving treatment 14 days after the day of surgery. Sham-operated and orchidectomized rats, treated with vehicle, served as controls. The different test groups were treated with various doses of Compound 102 (0.03 to 100 mg/kg/day per os (by mouth)). Dosages included 0.03, 0.1, 0.3, 1, 3, 10, 30 and 100 mg/kg/day. Ostarine, a non-steroidal androgenic drug (Evans et al., J Clin Oncology 25: 9119 (2007)) was dosed at dosages similar to other test groups as a comparison. After the 14th dose, venous blood was collected at 0, 1, 2, 4 and 6 hours after dosing. The blood samples were collected in EDTA-containing tubes (Becton Dickinson, Franklin Lakes, N.J.). Approximately 24 hours after the last dose, animals were euthanized and seminal vesicle weights, ventral prostate weights, levator ani weights, preputial gland weights and blood samples were collected on necropsy.
For serum, whole blood (5 mL) was collected in vacutainer tubes (Becton Dickinson) and the blood samples were allowed to clot at room temperature for about 2 hours. Serum was separated by centrifugation at 2500 rpm for 30 minutes, collected and frozen (−80° C.). For plasma, whole blood was collected in EDTA-containing tubes by centrifugation at 1000×g for 5 minutes at 4° C. Plasma samples were stored at −20° C.
For the preparation of all dose formulations, the appropriate amount of test compound (Compound 102) for the highest concentration to be administered was weighed. The compound was suspended in the formulation vehicle (5% Tween®-80 polysorbate, 90% PEG-400 polyethylene glycol and 5% PVP-K30 polyvinylpyrrolidone). The suspension was sonicated for 15 minutes, and the resulting formulation was diluted using vehicle to obtain the proper volume and concentrations of the dosing materials to achieve a dosing volume of 1 mL/kg body weight.
Serum samples were assayed with a double anti-serum procedure using reagents from the National Institute of Diabetes and Digestive and Kidney Diseases (NIDDK). Sample compounds and standards (NIDDK-rLH-RP-3) in a total volume of 200 μL were incubated at room temperature for 2 to 3 days with 100 μL primary anti-serum (rat LH antiserum: rabbit NIDDK-anti-rLH-S-11) diluted 1:100,000. Then, 100 μL of ^125I-labeled LH (Covance Laboratories Madison, Wis.) diluted 200,000-300,000 cpm/mL was added to the tubes and incubation continued for an additional 24 hour period.
Bound hormone was separated from free hormone by precipitation with a specific goat ant-rabbit serum (GARS from Antibodies, Inc., Davis, Calif.). An aliquot of 50 μL of 4% normal rabbit serum was added to each incubation tube, after which an additional 50 μL of a 1:10 GARS solution was added. The tubes were vortexed and incubated overnight at 4° C.
The assay was terminated by centrifugation at 2,500 rpm for 30 minutes in a Sorvall RC 3C Plus centrifuge (rotor #H2000B) at 4° C. The supernatants were decanted and discarded and the pellets were counted in a 10-channel gamma-counter.
Serum osteocalcin, a vitamin K-dependent, calcium binding protein, is a biochemical marker that reflects bone formation activity (Gundberg, J Clin Ligand Assay 21: 128-138 (1998)). Serum osteocalcin was quantitated using an IRMA kit from Immutopics, Inc. (#50-1500, San Clemente, Calif.). […] The test uses two different antibodies to measure the serum osteocalcin. […]

Structure (SMILES)	preputial gland weight (30 mg/kg/day, statistically significant)	ventral prostate or seminal vesicles, % of sham levels (100 mg/kg/day PO (highest dose))	exposure (AUC24) at which muscle mass is stimulated above sham equivalent levels	preputial gland weight (all doses less than 10 mg/kg/day PO)	ventral prostate, % of sham equivalent levels (exposures of 1 μg·/mL or greater)	restoration of ventral prostate to sham equivalents (any dose)
N#Cc1ccc(N2CCC[C@@H]2[C@@H](O)C(F)(F)F)cc1C(F)(F)F [Compound 102, R,R-4-(2-(1-Hydroxyl-2,2,2-trifluoroethyl)-pyrrolidinyl)-2-trifluoromethyl-benzonitrile]	increased preputial gland weight above the sham level	approximately 50%	≥ 1 µg·h/mL	remained below vehicle equivalent levels	less than 50%	–
C[C@](O)(COc1ccc(C#N)cc1)C(=O)Nc1ccc(C#N)c(C(F)(F)F)c1 [ostarine]	–	–	greater than 10 μg·/mL	–	–	did not restore ventral prostate to sham equivalents at any dose
